Measurements from US12098148B2, “Therapeutic compounds” (C4X Discovery Limited, priority 2018, dated 2024).

Columns and labels:
[1] = tested on: NQO1 mRNA in BEAS-2B cells; assay: Beas2B NQO1 mRNA cell based assay; parameters: species or system human; details: Homo sapiens, BEAS-2B, 24 h, 24 h compound treatment, increase in NQO1 mRNA vs vehicle (0.1% DMSO), read-out: EC50
Experimental: Beas2B NQO1 mRNA Cell Based Assay
The up regulation of the NRF2 mediated gene NAD(P)H:quinone acceptor oxidoreductase 1 (NQO1) was measured using the following assay method: BEAS-2B cells (ATCC CRL-9609) were plated in 96-well clear plates at 20,000 cells/well in 75 μL of cell culture media and incubated overnight (37° C., 5% CO2). On day 2, 25 μL of compound or controls were added to the cells for 24 h. On day 3, the medium was aspirated from the plate and the Cells-to-CT™ 1-Step TaqMan® Kit (Ambion A25603) was used to perform expression analysis directly from cultured cells without RNA purification according to the manufacturer's instructions.
Briefly, cells were washed with ice cold PBS and 22.5 μL of room-temperature DNase/Lysis solution was added to the cells and incubated at room temperature for 5 minutes. To stop the reaction, 2.25 μL of stop solution was added to the cell lysate. The samples were diluted 1:5 using nuclease free water and 2.5 μL transferred into the PCR plate. Real-time PCR was performed using the C-1000 Thermal Cycler (Bio-Rad) using human beta actin as the internal control. The cDNA was amplified with a specific primer for NQO1 using the 1-step RT-PCR master mix (Ambion Cells-to-CT™ 1-Step TaqMan® Kit A25603). The primers/probes sets that were used for amplification of cDNA were obtained from TaqMan Gene Expression Assays (Applied Biosystems). The comparative CT (ΔΔCT) relative quantification method was used to calculate the relative mRNA level of the target gene NQO1 as described in the Applied Biosystems Chemistry Guide.

[2] = molecular target: human KEAP1 (N-term, residues 321-609) (Homo sapiens, UniProt Q14145); assay: biochemical;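 also: fluorescence polarization competition assay of Kelch domain binding to NRF2, 12-point 1:3 dilution series from 10 µM, read after 1 h at room temperature, floor 10 nM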
Sequence of human KEAP1 (N-term, residues 321-609) (Q14145 321-609): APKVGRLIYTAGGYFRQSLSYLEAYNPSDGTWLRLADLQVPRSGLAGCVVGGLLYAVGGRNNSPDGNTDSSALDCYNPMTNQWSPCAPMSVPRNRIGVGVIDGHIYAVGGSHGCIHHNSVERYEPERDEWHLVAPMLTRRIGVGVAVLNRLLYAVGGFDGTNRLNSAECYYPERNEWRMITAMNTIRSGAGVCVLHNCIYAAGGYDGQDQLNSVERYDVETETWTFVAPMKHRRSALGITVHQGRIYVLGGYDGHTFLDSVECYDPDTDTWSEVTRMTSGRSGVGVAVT
Experimental: Biological Assays KEAP1 Kelch Fluorescence Polarization (FP) Assay Method
Inhibition of the Kelch domain-NRF2 interaction was determined using a fluorescence polarization-based competition assay in a black 384-well microplate. Compounds were tested at a starting concentration of 10 μM serially diluted 1:3 to generate a 12-point dose response curve on the Biomek FX robot.
After 1 h at room temperature, fluorescence polarization (excitation 470 nm/emission 530 nm) was measured using an Envision plate reader. IC50 values were determined by fitting the data to a four parameter logistic fit using XLfit or XE Runner within ActivityBase.

Row | Structure (SMILES) | IC50 [2] | EC50 [1]
1 | CC(C)n1ccnc1COc1ccc(Br)c2c1[C@@H](CN1Cc3ccccc3C1=O)N(C(=O)[C@@H]1CCCC[C@@H]1C(=O)O)CC2 [Example 40, (1S,2R)-2-((S)-5-bromo-8-((1-isopropyl-1H-imidazol-2-yl)methoxy)-1-((1-oxoisoindolin-2-yl)methyl)-1,2,3,4-tetrahydroisoquinoline-2-carbonyl)cyclohexane-1-carboxylic acid] | 9 nM | 94 nM
2 | O=C(O)[C@H]1CCCC[C@H]1C(=O)N1CCc2c(Cl)ccc(OCc3ccccn3)c2[C@H]1CN1CCCC1=O [Example 69, (1S,2R)-2-((S)-5-chloro-1-((2-oxopyrrolidin-1-yl)methyl)-8-(pyridin-2-ylmethoxy)-1,2,3,4-tetrahydroisoquinoline-2-carbonyl) cyclohexane-1-carboxylic acid] | 6.9 nM | 140 nM
3 | Cn1nnc(COc2ccc(Cl)c3c2[C@@H](CN2CCCC2=O)N(C(=O)[C@@H]2CCCC[C@@H]2C(=O)O)CC3)c1C(F)F [Example 82, (1S,2R)-2-((S)-5-Chloro-8-((5-(difluoromethyl)-1-methyl-1H-1,2,3-triazol-4-yl)methoxy)-1-((2-oxopyrrolidin-1-yl)methyl)-1,2,3,4-tetrahydroisoquinoline-2-carbonyl) cyclohexane-1-carboxylic acid] | 7.7 nM | 1.3 nM
4 | CC(C)n1cc(COc2ccc(F)c3c2[C@@H](CN2Cc4ccccc4C2=O)N(C(=O)[C@@H]2CCCC[C@@H]2C(=O)O)CC3)nn1 [Example 58, (1S,2R)-2-((S)-5-fluoro-8-((1-isopropyl-1H-1,2,3-triazol-4-yl)methoxy)-1-((1-oxoisoindolin-2-yl)methyl)-1,2,3,4-tetrahydroisoquinoline-2-carbonyl)cyclohexane-1-carboxylic acid] | 8 nM | 68 nM
5 | CC(C)c1nc(COc2ccc(Cl)c3c2[C@@H](CN2CCCC2=O)N(C(=O)[C@@H]2CCCC[C@@H]2C(=O)O)CC3)no1 [Example 83, (1S,2R)-2-((S)-5-Chloro-8-((5-isopropyl-1,2,4-oxadiazol-3-yl)methoxy)-1-((2-oxopyrrolidin-1-yl)methyl)-1,2,3,4-tetrahydroisoquinoline-2-carbonyl) cyclohexane-1-carboxylic acid] | 7.8 nM | 35 nM
6 | O=C(O)[C@H]1CCCC[C@H]1C(=O)N1CCc2c(Br)ccc(O[C@H]3CCN(C(=O)c4cncs4)C3)c2[C@H]1CN1C(=O)c2ccccc2C1=O [Example 5, (1S,2R)-2-((S)-5-bromo-1-((1,3-dioxoisoindolin-2-yl)methyl)-8-(((S)-1-(thiazole-5-carbonyl)pyrrolidin-3-yl)oxy)-1,2,3,4-tetrahydroisoquinoline-2-carbonyl)cyclohexane-1-carboxylic acid] | 6.1 nM | 2.5 nM
7 | O=C(O)[C@H]1CCCC[C@H]1C(=O)N1CCc2c(Cl)ccc(O[C@H]3CCN(C(=O)c4cncs4)C3)c2[C@H]1CN1C(=O)c2ccccc2C1=O [Example 14, (1S,2R)-2-((S)-5-chloro-1-((1,3-dioxoisoindolin-2-yl)methyl)-8-(((S)-1-(thiazole-5-carbonyl)pyrrolidin-3-yl)oxy)-1,2,3,4-tetrahydroisoquinoline-2-carbonyl)cyclohexane-1-carboxylic acid] | 3.7 nM | 2.9 nM
8 | CC(Oc1ccc(Br)c2c1[C@@H](CN1Cc3ccccc3C1=O)N(C(=O)[C@@H]1CCCC[C@@H]1C(=O)O)CC2)c1cn(C)nn1 (stereo partly drawn) [Example 45, (1S,2R)-2-((1S)-5-bromo-8-(1-(1-methyl-1H-1,2,3-triazol-4-yl)ethoxy)-1-((1-oxoisoindolin-2-yl)methyl)-1,2,3,4-tetrahydroisoquinoline-2-carbonyl)cyclohexane-1-carboxylic acid] | 4.9 nM | 110 nM

Continued, in another order:

Row | IC50 [2] | Structure (SMILES) | EC50 [1]
9 | 5.5 nM | Cc1scnc1COc1ccc(Cl)c2c1[C@@H](CN1CC3(CC3)CC1=O)N(C(=O)[C@@H]1CCCC[C@]1(C)C(=O)O)CC2 [Example 205, (1S,2R)-2-((S)-5-chloro-8-((5-methylthiazol-4-yl)methoxy)-1-((6-oxo-5-azaspiro[2.4]heptan-5-yl)methyl)-1,2,3,4-tetrahydroisoquinoline-2-carbonyl)-1-methylcyclohexane-1-carboxylic acid] | 19 nM
10 | 8.4 nM | C[C@]1(C(=O)O)CCCC[C@H]1C(=O)N1CCc2c(Cl)ccc(OC3CCn4cnnc43)c2[C@H]1CN1CC2(CC2)CC1=O (stereo partly drawn) [Example 209, (1S,2R)-2-((1S)-5-chloro-8-((6,7-dihydro-5H-pyrrolo [2,1-c][1,2,4]triazol-7-yl)oxy)-1-((6-oxo-5-azaspiro[2.4]heptan-5-yl)methyl)-1,2,3,4-tetrahydroisoquinoline-2-carbonyl)-1-methylcyclohexane-1-carboxylic acid] | 290 nM
11 | 5 nM | Cn1nnc(COc2ccc(Cl)c3c2[C@@H](CN2CC4(CC4)CC2=O)N(C(=O)[C@@H]2CCCC[C@]2(C)C(=O)O)CC3)c1C(F)(F)F [Example 150, (1S,2R)-2-((S)-5-chloro-8-((1-methyl-5-(trifluoromethyl)-1H-1,2,3-triazol-4-yl)methoxy)-1-((6-oxo-5-azaspiro [2.4]heptan-5-yl)methyl)-1,2,3,4-tetrahydroisoquinoline-2-carbonyl)-1-methylcyclohexane-1-carboxylic acid] | 0.97 nM
12 | 6.2 nM | CCn1nnc(COc2ccc(Cl)c3c2[C@@H](CN2CCCC2=O)N(C(=O)[C@@H]2CCCC[C@]2(C)C(=O)O)CC3)c1C(F)F [Example 120, (1S,2R)-2-((S)-5-chloro-8-((5-(difluoromethyl)-1-ethyl-1H-1,2,3-triazol-4-yl)methoxy)-1-((2-oxopyrrolidin-1-yl)methyl)-1,2,3,4-tetrahydroisoquinoline-2-carbonyl)-1-methylcyclohexane-1-carboxylic acid] | 1.2 nM
13 | 5.1 nM | C[C@@H]1CC(=O)N(C[C@@H]2c3c(OCc4nnn(C)c4C(F)(F)F)ccc(Cl)c3CCN2C(=O)[C@@H]2CCCC[C@]2(C)C(=O)O)C1 [Example 132, (1S,2R)-2-((S)-5-chloro-1-(((R)-4-methyl-2-oxopyrrolidin-1-yl)methyl)-8-((1-methyl-5-(trifluoromethyl)-1H-1,2,3-triazol-4-yl)methoxy)-1,2,3,4-tetrahydroisoquinoline-2-carbonyl)-1-methylcyclohexane-1-carboxylic acid] | 5.7 nM
14 | 8.2 nM | C[C@]1(C(=O)O)CCCC[C@H]1C(=O)N1CCc2c(Cl)ccc(OCc3nnn(C4CC4)c3C(F)F)c2[C@H]1CN1CCCC1=O [Example 134, (1S,2R)-2-((S)-5-chloro-8-((1-cyclopropyl-5-(difluoromethyl)-1H-1,2,3-triazol-4-yl)methoxy)-1-((2-oxopyrrolidin-1-yl)methyl)-1,2,3,4-tetrahydroisoquinoline-2-carbonyl)-1-methylcyclohexane-1-carboxylic acid] | 2.2 nM
15 | 4.8 nM | Cn1nnc(COc2ccc(Cl)c3c2[C@@H](CN2CCCC2=O)N(C(=O)[C@@H]2CCC[C@]2(C)C(=O)O)CC3)c1C(F)F [Example 102, (1S,2R)-2-((S)-5-chloro-8-((5-(difluoromethyl)-1-methyl-1H-1,2,3-triazol-4-yl)methoxy)-1-((2-oxopyrrolidin-1-yl)methyl)-1,2,3,4-tetrahydroisoquinoline-2-carbonyl)-1-methylcyclopentane-1-carboxylic acid] | 1 nM
16 | 7.2 nM | Cn1nnc(COc2ccc(Cl)c3c2[C@@H](CN2CC(C)(C)CC2=O)N(C(=O)[C@@H]2CCCC[C@]2(C)C(=O)O)CC3)c1C(F)F [Example 152, (1S,2R)-2-((S)-5-chloro-8-((5-(difluoromethyl)-1-methyl-1H-1,2,3-triazol-4-yl)methoxy)-1-((4,4-dimethyl-2-oxopyrrolidin-1-yl)methyl)-1,2,3,4-tetrahydroisoquinoline-2-carbonyl)-1-methylcyclohexane-1-carboxylic acid] | 10 nM
17 | 5.9 nM | Cc1onc(COc2ccc(Cl)c3c2[C@@H](CN2CC4(CC4)CC2=O)N(C(=O)[C@@H]2CCCC[C@]2(C)C(=O)O)CC3)c1C(F)F [Example 157, (1S,2R)-2-((S)-5-chloro-8-((4-(difluoromethyl)-5-methylisoxazol-3-yl)methoxy)-1-((6-oxo-5-azaspiro [2.4]heptan-5-yl)methyl)-1,2,3,4-tetrahydroisoquinoline-2-carbonyl)-1-methylcyclohexane-1-carboxylic acid] | 4.9 nM
18 | 6.5 nM | CN(C)CCn1cc(COc2ccc(Cl)c3c2[C@@H](CN2CC4(CC4)CC2=O)N(C(=O)[C@@H]2CCCC[C@]2(C)C(=O)O)CC3)nn1 [Example 173, (1S,2R)-2-((S)-5-chloro-8-((1-(2-(dimethylamino)ethyl)-1H-1,2,3-triazol-4-yl)methoxy)-1-((6-oxo-5-azaspiro[2.4]heptan-5-yl)methyl)-1,2,3,4-tetrahydroisoquinoline-2-carbonyl)-1-methylcyclohexane-1-carboxylic acid] | 35 nM
